# According to patent US20240197733A1, “A GABA RECEPTOR MODULATOR FOR USE IN THE TREATMENT OF PAIN” (SANIONA A/S, priority 2021, published 2024):
# Key:
# [1] = test system: electrocutaneous stimulation-induced facial pain rodent model; assay: ES-induced facial pain model, mechanical allodynia (Von Frey filaments), acute treatment; format: in vivo, Sprague-Dawley rats; conditions: for effect on mechanical allodynia (mechanical pain threshold, Von Frey) vs vehicle: acute
# Text: (§1) The electrocutaneous stimulation-induced facial pain rodent model is a reproducible orofacial pain model in which depilated cheek area of rats are repeatedly subjected to electrical stimulation. Repeated electrical stimulation at low intensities produces craniofacial pain that mimics the behavioral characteristics of TN such as development of mechanical and thermal allodynia at cheeks despite no visible edema, swelling or excessive injury and tissue damage.
# (§2) Male wild type, Sprague-Dawley rats (Charles River Laboratories) born in-house at AfaSci Research Laboratory between May 24, 2020 to May 28, 2020. At approximately 3 months of age (approximately 350 g-450 g body weight) the rats were deemed suitable for the electrocutaneous stimulation-induced facial pain model. Prior to the experiment, the rats were maintained in group cages (3 rats per cage) in a controlled environment (temperature: 21.5±4.5° C./relative humidity: 35-55%) under a standard 12 h light/12 h dark lighting cycle (lights on at 06:00).
# (§3) The required quantity of the compounds are weighed and dissolved in 100% DMSO in a volume amounting to 5% of the total volume while placed on a stirrer. The weight of the compounds refers to the free base weights. Once the solution becomes clear/transparent, the remaining volume of the vehicle is added (30% HPBCD prepared in MQ water) to final concentrations of 0.1, 0.3, and 1 mg/ml for Compound 1 and 3 mg/ml of Carbamazepine. The solutions are kept on a stirrer before- and during administration of the compounds to the animals.
# (§4) The experimenter assessing the behavioral responses to drug administration is blinded to the drug treatment to the animals. Each treatment group is coded according the scheme below: • A. Vehicle (5% DMSO+30% HPBCD): 10 ml/kg • B. Compound 1: 1 mg/kg • C. Compound 1: 3 mg/kg • D. Compound 1: 10 mg/kg • F. Carbamazepine: 30 mg/kg
# Second baseline measurement was carried out similarly to day 1. […] For each animal, the average of the two baseline nociceptive measurements were calculated within each pain modality (mechanical, heat- and cold pain), and used as baseline (“Baseline” point on figures).
# Similarly, to day 1- and 2, all rats were subjected to acclimatization to test equipment and decapicone followed by measurements of ES-induced facial mechanical- heat- and cold allodynia (“0” time point on figures). […] Compound 1, vehicle and Carbamazepine was administered perorally in doses of 1, 3, and 10 mg/kg (Compound 1) or 30 mg/kg (carbamazepine) and drug effects on pain thresholds were evaluated 2- and 4 hours after drug administration by assessment of mechanical- (von Frey) and thermal hypersensitivity (heat- and cold stimulation respectively).
# (§5) Decrease in ES-induced pain threshold was evaluated 22 hours following electrical stimulation of the depilated left cheek area (between the eye and ear ridge, this is a receptive field of trigeminal nerve) of each rat and was manifested as facial withdrawal following application of Von Frey filaments for mechanical allodynia and a heat lamp and acetone test for thermal hyperalgesia and allodynia respectively. Baseline pain behaviors were measured similarly to ES-induced facial pain measurements, except that rats were not subjected to ES stimulation.
# Mechanical pain thresholds were assessed by measuring each rat's facial withdrawal threshold (g) in response to von Frey monofilaments (BioSeb). […]
# [2] = test system: electrocutaneous stimulation-induced facial pain rodent model; assay: ES-induced facial pain model, hot thermal hyperalgesia (lamp test, selective C fiber testing), acute treatment; format: in vivo, Sprague-Dawley rats
# Text: as §1, §2, §3, §4
# Second baseline measurement was carried out similarly to day 1. Immediately following the second baseline recording, each rat received 1 hr of electrocutaneous stimulation at cheek (0.4 mA intensity, 10 ms duration, 1 s inter-pulse interval). For each animal, the average of the two baseline nociceptive measurements were calculated within each pain modality (mechanical, heat- and cold pain), and used as baseline (“Baseline” point on figures).
# Similarly, to day 1- and 2, all rats were subjected to acclimatization to test equipment and decapicone followed by measurements of ES-induced facial mechanical- heat- and cold allodynia (“0” time point on figures). Based on the individual rat's mechanical- and thermal hypersensitivity, 40 rats were selected for drug testing. Compound 1, vehicle and Carbamazepine was administered perorally in doses of 1, 3, and 10 mg/kg (Compound 1) or 30 mg/kg (carbamazepine) and drug effects on pain thresholds were evaluated 2- and 4 hours after drug administration by assessment of mechanical- (von Frey) and thermal hypersensitivity (heat- and cold stimulation respectively).
# as §5
# Immediately following assessment of mechanical pain threshold, thermal (hot- and cold induced) pain was determined. […]
# [3] = test system: electrocutaneous stimulation-induced facial pain rodent model; assay: ES-induced facial pain model, mechanical allodynia (Von Frey), prophylactic and acute treatment; format: in vivo, Sprague-Dawley rats
# Protocol: Mechanical pain thresholds were assessed by measuring each rat's facial withdrawal threshold (g) in response to von Frey monofilaments (BioSeb). Starting monofilament: 3.84 (0.6 g), 50% facial withdrawal threshold was interpolated using the up-down method (Chaplan S R et al., 1994). Cutoff monofilament was 4.56 (4 g). Unless stated otherwise, the same materials, methods, and provisions of Example 1 were applied to Example 2. The required quantity of the compound is weighed and dissolved in 100% DMSO in a volume amounting to 5% of the total volume while placed on a stirrer. The weight of the compounds refers to the free base weights. Once the solution becomes clear/transparent, the remaining volume of the vehicle is added (30% HPBCD prepared in MQ water) to final concentrations of 0.03, 0.1, and 0.3 mg/ml for Compound 1. The solutions are kept on a stirrer before- and during administration of the compounds to the animals. The experimenter assessing the behavioral responses to drug administration is blinded to the drug treatment to the animals. Each treatment group is coded according the scheme below: • A. Vehicle (5% DMSO+30% HPBCD): 10 ml/kg • B. Compound 1: 0.3 mg/kg • C. Compound 1: 1 mg/kg • D. Compound 1: 3 mg/kg • F. Compound 1: 3 mg/kg—acute Second baseline measurement was carried out similarly to day 1, For each animal, the average of the two baseline nociceptive measurements was calculated within each pain modality (mechanical, heat- and cold pain), and used as baseline (“Baseline” point on figures). Then all rats in the above respective group (A-D) are given treated as mentioned. Group F received vehicle treatment. Treatment is continued once daily to each group same as Day 2 All rats were treated with respective treatment as per day 3-7. After 1 hr of treatment, each rat was subjected to 1 hr of electrocutaneous stimulation at depilated cheek (0.4 mA intensity, 10 ms duration, 1 s inter-pulse interval). Similar to day 1- and 2, all rats were acclimatized to test equipment followed by measurements of ES-induced facial mechanical- heat- and cold allodynia (“0” time point on figures). After measurement of hypersensitivity threshold, rats from group A-D received the vehicle and three doses of Compound 1 as mentioned above while group F received single acute dose of 3 mg/kg of Compound 1. Treatment effects on pain thresholds were evaluated 2- and 4 hours after administration by assessing mechanical- (Von Frey) and thermal (heat and cold) withdrawal threshold.
# [4] = molecular target: GABAA receptors containing the a2 subunit (Homo sapiens, UniProt P18507+P47869); conditions: cited from earlier work
# Chain of GABAA receptors containing the a2 subunit (P47869 29-451): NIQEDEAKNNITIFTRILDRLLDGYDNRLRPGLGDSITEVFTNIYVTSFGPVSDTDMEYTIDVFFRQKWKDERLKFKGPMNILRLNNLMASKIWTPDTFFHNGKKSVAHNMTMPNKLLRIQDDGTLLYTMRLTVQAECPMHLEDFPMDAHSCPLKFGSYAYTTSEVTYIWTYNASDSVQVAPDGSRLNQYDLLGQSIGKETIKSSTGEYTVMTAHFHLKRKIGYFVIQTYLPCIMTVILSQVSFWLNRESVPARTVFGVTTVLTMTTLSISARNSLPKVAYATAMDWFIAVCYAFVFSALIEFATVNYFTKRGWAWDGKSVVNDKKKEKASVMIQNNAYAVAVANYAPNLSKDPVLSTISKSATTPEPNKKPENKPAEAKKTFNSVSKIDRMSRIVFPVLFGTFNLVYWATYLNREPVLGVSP
# Chain of GABAA receptors containing the a2 subunit (P47870 25-512 partner limits assumed): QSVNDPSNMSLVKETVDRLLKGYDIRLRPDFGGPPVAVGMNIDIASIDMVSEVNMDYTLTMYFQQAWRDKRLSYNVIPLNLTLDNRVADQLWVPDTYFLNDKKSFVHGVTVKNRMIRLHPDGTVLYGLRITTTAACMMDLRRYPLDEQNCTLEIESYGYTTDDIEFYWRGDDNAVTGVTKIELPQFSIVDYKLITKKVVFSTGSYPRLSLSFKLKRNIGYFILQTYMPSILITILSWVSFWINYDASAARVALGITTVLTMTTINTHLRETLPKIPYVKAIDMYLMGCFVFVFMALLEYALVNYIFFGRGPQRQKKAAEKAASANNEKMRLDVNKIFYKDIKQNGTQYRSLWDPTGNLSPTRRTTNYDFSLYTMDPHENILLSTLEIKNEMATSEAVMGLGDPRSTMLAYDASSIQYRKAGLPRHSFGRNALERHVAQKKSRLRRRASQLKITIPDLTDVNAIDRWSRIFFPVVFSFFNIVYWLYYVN
# Chain of GABAA receptors containing the a2 subunit (P18507 40-475): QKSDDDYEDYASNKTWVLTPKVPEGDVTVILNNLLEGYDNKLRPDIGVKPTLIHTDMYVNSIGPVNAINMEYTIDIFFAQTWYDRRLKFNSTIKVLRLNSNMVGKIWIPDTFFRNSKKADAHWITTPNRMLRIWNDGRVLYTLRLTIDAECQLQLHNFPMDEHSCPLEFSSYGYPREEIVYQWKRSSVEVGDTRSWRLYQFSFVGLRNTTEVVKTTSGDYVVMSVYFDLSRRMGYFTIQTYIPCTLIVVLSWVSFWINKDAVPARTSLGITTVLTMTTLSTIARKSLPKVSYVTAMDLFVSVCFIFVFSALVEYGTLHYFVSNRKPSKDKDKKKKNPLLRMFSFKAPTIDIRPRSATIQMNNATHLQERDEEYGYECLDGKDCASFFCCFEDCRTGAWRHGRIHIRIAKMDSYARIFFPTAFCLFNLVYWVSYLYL
compound,measurement,setting,value
"COc1ncc(-c2cccc(-n3cnc4cc(C(C)(C)O)cnc43)c2)c(OC)n1 [Compound 1, 2-(3-(3-(2,4-dimethoxypyrimidin-5-yl)phenyl)-3H-imidazo[4,5-b]pyridin-6-yl)propan-2-ol]","effect on mechanical allodynia (mechanical pain threshold, Von Frey) vs vehicle","[1]; 3 mg/kg po, 4 hours post dosing, p<0.05 vs vehicle",significant analgesic effect
same,"effect on mechanical allodynia (mechanical pain threshold, Von Frey) vs vehicle","[1]; 10 mg/kg po, 2 hrs, p<0.05 vs vehicle",reversed the mechanical allodynia
same,"effect on mechanical allodynia (mechanical pain threshold, Von Frey) vs vehicle","[1]; 10 mg/kg po, 4 hours post dosing, p<0.0001 vs vehicle",significant analgesic effect
same,analgesic effect on mechanical allodynia compared with carbamazepine 30 mg/kg p.o.,"[1]; 10 mg/kg po, post 4 hrs of treatment",comparable analgesic effect with carbamazepine
same,effect on heat thermal hyperalgesia (facial withdrawal latency) vs vehicle,"[2]; 3 mg/kg po, post 2 and 4 hrs, p<0.05 and p<0.001 vs vehicle",significantly reversed the mechanical allodynia
same,effect on heat thermal hyperalgesia (facial withdrawal latency) vs vehicle,"[2]; 10 mg/kg po, 2 and 4 hrs post dose, p<0.0001",significantly produced reversal of hyperalgesia
same,reversal of hyperalgesia in the thermal heat test (conclusion),"[2]; 10 mg/kg po, highest dose tested, similar to Carbamazepine 30 mg/kg",full reversal of hyperalgesia
same,"effect on heat thermal hyperalgesia (facial withdrawal latency), dose dependence","[2]; 1, 3 and 10 mg/kg po",dose dependently reversed the heat thermal hyperalgesia
same,"minimal effective dose, heat thermal hyperalgesia","[2]; po, p<0.01 and p<0.05 vs vehicle 2 and 4 hrs post dose",1 mg/kg
same,"effect size on mechanical allodynia, acute treatment compared to prophylactic treated animals",[3]; acute 3 mg/kg po,smaller
same,effect on established mechanical allodynia vs vehicle,"[3]; acute 3 mg/kg po on day 9, p<0.01 post 2 hrs, p<0.001 post 4 hrs",reversed the mechanical allodynia
same,effect on established mechanical allodynia vs vehicle,"[3]; prophylactic 0.3 mg/kg po plus additional dose on day 9, p>0.05 post 2 hrs, p<0.01 post 4 hrs",reversed the mechanical allodynia dose dependently
same,effect on established mechanical allodynia vs vehicle,"[3]; prophylactic 1 mg/kg po plus additional dose on day 9, p<0.01 post 2 hrs, p<0.0001 post 4 hrs",reversed the mechanical allodynia dose dependently
same,development of mechanical allodynia vs vehicle,"[3]; prophylactic 3 mg/kg po once daily for 7 days, day 9 at 0 time, p<0.001 vs vehicle",significantly reduced the development of allodynia
same,effect on established mechanical allodynia vs vehicle,"[3]; prophylactic 3 mg/kg po plus additional dose on day 9, p<0.0001 post 2 hrs and post 4 hrs",reversed the mechanical allodynia dose dependently
same,positive allosteric modulation of GABAA receptors containing the a2 subunit,[4],to a minor extent
